In patent publication US20080293699A1, “Inhibitors of thapsigargin-induced cell death” (priority 2007, published 2008):
Read-outs that look alike come from different tables or passages of the source.

Experiments:
[1] = test system: phospho-c-Jun; assay: Immunoblotting of thapsigargin-induced c-Jun phosphorylation in CSM14.1 cells; type: cell-based, rat; settings: immunoblotting with phospho-specific antibody, 10 μM, 25 μM hits
Text: After confirming the pathway selectivity of compounds, additional downstream assays can be performed to map the specific signal transduction pathway inhibited by the compounds. In this regard, various antibody reagents are commercially available for assessing the status of the three major pathways known to be activated by ER stress: (1) PERK, (2) Ire1, and (3) ATF6 (Xu et al., J. Clinical Invest., 115:2656-2664, 2005). Immunoblotting experiments can be performed to assess the expression or phosphorylation (using phospho-specific antibodies) of marker proteins in these pathways. […] CSM 14.1 cells were cultured with DMSO or with 25 μM of hit compounds for two hours, followed by treatment of thapsigargin (15 μM). Cell lysates were prepared and analyzed by SDS-PAGE/immunoblotting using antibodies specific for phospho-c-Jun, phospho-eIF2α, phospho-p38 MAPK, and tubulin (a loading control). CSM14.1 cells were cultured with either DMSO or one of the active compounds at 1, 5, and 10 μM, followed two hours later by 15 μM TG. After two hrs, cell lysates were prepared, normalized for protein content, and either analyzed by SDS-PAGE/immunoblotting using anti-p38-MAPK pan-reactive antibody or phospho-specific antibody with ECL-based detection, followed by densitometry analysis of x-ray films, normalizing phosphor-p38 MAPK relative to total p38 MAPK, or analyzed using a meso-scale instrument from MSD and a procedure in which total p38 MAPK is captured on plates, and the relative amounts of phosphorylated protein were determined using phospho-specific antibody (MSD catalog #K15112D1). […] Suppression of p38 MAPK and c-Jun phosphorylation was dose-dependent, and could not be explained by a decline in total levels of these proteins. […] Proteolytic processing of ATF6 was also not inhibited by our hit compounds. […] Screens of other libraries (such as the NIH compound collection) may yield cytoprotective compounds with different mechanisms.
1) CSM14.1 cells were plated at a density of 2×10^5 cells/well at 6 well dish (Greiner Bio one) in DMEM containing 2% FBS and antibiotics.
2) After overnight incubation, cells were treated by DMSO (0.5%) or compounds (25 μM) for two hours, followed by TG (15 uM) treatment.
3) After two hours, cells were lyzed in 250 uL of lysis buffer and subjected to protein concentration decision, and to SDS PAGE/Western blotting using antibodies specific for phospho p38 MAPK (Cell signaling 9211), p38 MAPK (Santa Cruz-C20), phospho c-Jun (Cell signaling 9164), c-Jun (Santa Cruz-SC 1694), phospho eIF2α (Cell signaling 3597) and α-tubulin.
CSM 14.1 cells were cultured with DMSO or with 25 μM of hit compounds for two hours followed by treatment with thapsigargin (15 μM). Cell lysates were prepared and analyzed by SDS-PAGE/immunoblotting using antibodies specific for: c-Jun, phosphor-c-Jun (ser 73), eIF2a, phosphor-eIF2a (ser 51), p38 MAPK, phosphor-p38 MAPK (Thr180/Tyr182), ATF-6, CHOP and tubulin (loading control). ER stress-induced activation of C-Jun and p38 MAPK is suppressed by the 11 hit compounds.
CSM cells were treated with two compounds at increasing doses. Pre-incubation time, thapsigargin treatment, cell extract preparation and immunoblotting protocols were as described previously.

[2] = test system: CSM14.1 cells; assay: Primary HTS assay: ATP content (ATPlite) of undifferentiated CSM14.1 cells challenged with thapsigargin; type: cell-based, rat; settings: for IC50: thapsigargin-induced death of undifferentiated CSM14.1, ATP content
Outline: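 Undifferentiated CSM14.1 cells, 3,000/well, cultured overnight at 32 °C, then test compounds at ~15 μg/mL final (1% DMSO) added. Thapsigargin ~15 μM final given after 2 h; ATPlite luminescence read after 24 h as survival surrogate, with 100 μM Salubrinal as maximum and DMSO as minimum.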

[3] = one value given, read-out: IC50
[4] = first assay, read-out: IC50 (μM), first value
[5] = second assay (value in bold), read-out: IC50 (μM), value from a second assay

| SMILES | Thapsigargin-induced phosphorylation of c-Jun [1] | Cytoprotective activity, stimulus Thapsigargin (Result) ([2]; readout ATP & Annexin, CSM 14.1, compound ≦25 μM) | IC50 [2, 3] | IC50 [2, 4] | IC50 [2, 5] |
| --- | --- | --- | --- | --- | --- |
| CCN(CC)c1ccc(C2Nc3ccccc3NC3=C2C(=O)CC(c2ccccc2)C3)cc1 (stereo not shown) [Compound 5962123, 6-(4-diethylaminophenyl)-9-phenyl-5,6,8,9,10,11-hexahydrobenzo[c][1,5]benzodiazepin-7-one] | inhibits | + (+indicates ≧50% rescue of cell viability relative to untreated cells not exposed to thapsigargin at compound concentration of ≦25 μM) | 7.5 ± 0.857 µM |  |  |
| COc1ccc(C2CC(=O)C3=C(C2)Nc2ccccc2NC3c2ccccc2C(F)(F)F)cc1OC (stereo not shown) [Compound 6237735] | dose-dependent decrease |  | 12.5 ± 0.186 µM | 17.2 ± 0.471 µM | 12.5 ± 0.186 µM |
| COc1ccc(C2CC(=O)C3=C(C2)Nc2ccccc2NC3c2cccc(Oc3ccccc3)c2)cc1OC (stereo not shown) [Compound 6239507] |  |  | 10.2 ± 1.62 µM | 13.9 ± 0.26 µM | 10.2 ± 1.62 µM |
